According to ChEMBL document CHEMBL1255477, “In vitro properties of BAL30072, a novel siderophore sulfactam with activity against multiresistant gram-negative bacilli” (Antimicrob Agents Chemother, 2010):
pIC50: −log10 of the molar value. Values after ≈ are worked out from the molar mass of the structure shown. Active and inactive are the calls of the source. The calls are words filed in the database; no cut-off is given here.

Columns and labels:
Providencia stuartii = assay: Antimicrobial activity against Providencia stuartii by broth dilution method; type: functional
Proteus mirabilis = assay: Antimicrobial activity against Proteus mirabilis by broth dilution method; type: functional
[1] = system: Stenotrophomonas maltophilia; assay: Antimicrobial activity against Stenotrophomonas maltophilia by broth dilution method; type: functional
Escherichia coli [2] = assay: Antimicrobial activity against Escherichia coli HB101 harboring beta-lactamase TEM-5 by broth dilution method; type: functional
Escherichia coli [3] = assay: Antimicrobial activity against Escherichia coli A harboring beta-lactamase CTX-M 15 by broth dilution method; type: functional
Klebsiella oxytoca = assay: Antimicrobial activity against Klebsiella oxytoca 1028E harboring beta-lactamase K1 by broth dilution method; type: functional
Serratia marcescens = assay: Antimicrobial activity against Serratia marcescens S6 harboring beta-lactamase SME-1.AmpC by broth dilution method; type: functional
Klebsiella pneumoniae [4] = assay: Antimicrobial activity against Klebsiella pneumoniae CRE harboring beta-lactamase KPC-2 by broth dilution method; type: functional
Pseudomonas aeruginosa [5] = assay: Antimicrobial activity against Pseudomonas aeruginosa HPA101-1477 harboring beta-lactamase IMP-1 by broth dilution method; type: functional
Pseudomonas aeruginosa [6] = assay: Antimicrobial activity against Pseudomonas aeruginosa BA assessed as doubling time; type: functional
Pseudomonas aeruginosa [7] = assay: Antimicrobial activity against Pseudomonas aeruginosa BA(C2-107) mutant assessed as doubling time; type: functional
Pseudomonas aeruginosa [8] = assay: Antimicrobial activity against Pseudomonas aeruginosa BA(C1-106) mutant assessed as doubling time; type: functional
Pseudomonas aeruginosa [9] = assay: Microbicidal activity against Pseudomonas aeruginosa 527 selected after 8 times MIC compound exposure; type: functional
Pseudomonas aeruginosa [10] = assay: Microbicidal activity against Pseudomonas aeruginosa (560546)9 M.P. selected after MIC of compound exposure; type: functional
[11] = system: Stenotrophomonas maltophilia; assay: Microbicidal activity against Stenotrophomonas maltophilia 1AC736 selected after 2 times MIC compound exposure; type: functional
Acinetobacter baumannii [12] = assay: Antimicrobial activity against Acinetobacter baumannii HPA 4737 harboring beta-lactamase OXA-26 by broth dilution method; type: functional
Pseudomonas aeruginosa [13] = assay: Antimicrobial activity against oprD protein deficient Pseudomonas aeruginosa C2 by broth dilution method; type: functional
Pseudomonas aeruginosa [14] = assay: Antimicrobial activity against mexAB-oprM protein and mexCD-oprJ deficient Pseudomonas aeruginosa PAO238 by broth dilution method; type: functional
Pseudomonas aeruginosa [15] = assay: Antimicrobial activity against mexAB-oprM protein and mexZ deficient Pseudomonas aeruginosa PAO267 by broth dilution method; type: functional
Pseudomonas aeruginosa [16] = assay: Antimicrobial activity against mexAB-oprM, mexCD-oprJ, mexEF-oprN, mexJK, mexXY, opmH and pscC gene deficient Pseudomonas aeruginosa PAO750 by broth dilution method; type: functional
Pseudomonas aeruginosa [17] = assay: Antimicrobial activity against fpvA deficient Pseudomonas aeruginosa (560546)9 M.P. by broth dilution method; type: functional
Enterobacter cloacae [18] = assay: Microbicidal activity against Enterobacter cloacae S4741B selected after 4 times MIC compound exposure; type: functional
Acinetobacter baumannii [19] = assay: Antimicrobial activity against Acinetobacter baumannii HPA74510 by broth dilution method; type: functional
Acinetobacter junii [20] = assay: Antimicrobial activity against Acinetobacter junii 15218 by broth dilution method; type: functional
Enterobacter cloacae [21] = assay: Antimicrobial activity against Enterobacter cloacae S4741B by broth dilution method; type: functional
Enterobacter cloacae [22] = assay: Antimicrobial activity against Enterobacter cloacae S9369 by broth dilution method; type: functional
Acinetobacter baumannii [23] = assay: Antimicrobial activity against Acinetobacter baumannii HPA74510 assessed as appearance of colony at 4 times MIC concentration; type: functional, organism-based
Acinetobacter junii [24] = assay: Antimicrobial activity against Acinetobacter junii 15218 assessed as appearance of colony at 4 times MIC concentration; type: functional
Klebsiella pneumoniae [25] = assay: Antimicrobial activity against Klebsiella pneumoniae 1338665 assessed as appearance of colony at 4 times MIC concentration; type: functional, organism-based
Pseudomonas aeruginosa [26] = assay: Antimicrobial activity against Pseudomonas aeruginosa 527 assessed as appearance of colony at 4 times MIC concentration; type: functional
Pseudomonas aeruginosa [27] = assay: Antimicrobial activity against Pseudomonas aeruginosa 860 assessed as appearance of colony at 4 times MIC concentration; type: functional
Enterobacter cloacae [28] = assay: Antimicrobial activity against Enterobacter cloacae S4741B assessed as number of passages required for MIC to rise above 4 times original MIC; type: functional
Pseudomonas aeruginosa [29] = assay: Antimicrobial activity against Pseudomonas aeruginosa 621 assessed as number of passages required for MIC to rise above 4 times original MIC; type: functional
Pseudomonas aeruginosa [30] = assay: microbe, parasite or virus in culture; conditions: PAO1
Description: Antimicrobial activity against Pseudomonas aeruginosa PAO1 by broth dilution method

Enterobacteriaceae = assay: Antimicrobial activity against Enterobacteriaceae by broth dilution method; type: functional
[31] = Inhibition of Escherichia coli Penicillin-binding protein 1A
[32] = Inhibition of Escherichia coli Penicillin-binding protein 1B
[33] = Inhibition of Escherichia coli Penicillin-binding protein 2
[34] = Inhibition of Escherichia coli Penicillin-binding protein 3
Acinetobacter baumannii [35] = assay: Microbicidal activity against Acinetobacter baumannii HPA74510 selected after 4 times MIC compound exposure; type: functional
Pseudomonas aeruginosa [36] = assay: Microbicidal activity against Pseudomonas aeruginosa BA selected after 8 times MIC compound exposure; type: functional
Pseudomonas aeruginosa [37] = assay: Microbicidal activity against Pseudomonas aeruginosa 527 selected after 4 times MIC compound exposure; type: functional
Pseudomonas aeruginosa [38] = assay: Microbicidal activity against Pseudomonas aeruginosa (560546)9 M.P. selected after 4 times MIC compound exposure; type: functional
[39] = system: Stenotrophomonas maltophilia; assay: Microbicidal activity against Stenotrophomonas maltophilia 1AC736 selected after MIC of compound exposure; type: functional
Enterobacter cloacae [40] = assay: Antimicrobial activity against Enterobacter cloacae S9369 assessed as log reduction in colony count after 24 hrs; type: functional
Pseudomonas aeruginosa [41] = assay: Antimicrobial activity against Pseudomonas aeruginosa 1024 assessed as log reduction in colony count within 6 hrs selected after 4 to 8 times MIC compound exposure; type: functional, organism-based
Pseudomonas aeruginosa [42] = assay: Antimicrobial activity against Pseudomonas aeruginosa HPA10586 assessed as log reduction in colony count within 6 hrs selected after 1 to 16 times MIC compound exposure; type: functional, organism-based
[43] = system: Stenotrophomonas maltophilia; assay: Antimicrobial activity against Stenotrophomonas maltophilia 1AC736 assessed as log reduction in colony count within 6 hrs selected after 1 to 16 times MIC compound exposure; type: functional, organism-based
Escherichia coli [44] = assay: Antimicrobial activity against Escherichia coli W3110 assessed as appearance of spheroplast at 4 ug/mL after 3 hrs by phase-contrast microscopy; type: functional, organism-based
Acinetobacter baumannii [45] = assay: Antimicrobial activity against Acinetobacter baumannii HPA74510 assessed as highest concentration at which colonies reappeared; type: functional
Acinetobacter junii [46] = assay: Antimicrobial activity against Acinetobacter junii 15218 assessed as highest concentration at which colonies reappeared; type: functional
Enterobacter cloacae [47] = assay: Antimicrobial activity against Enterobacter cloacae S4741B assessed as highest concentration at which colonies reappeared; type: functional
Escherichia coli [48] = assay: Antimicrobial activity against Escherichia coli W3110 assessed as highest concentration at which colonies reappeared; type: functional
Pseudomonas aeruginosa [49] = assay: Antimicrobial activity against Pseudomonas aeruginosa 860 assessed as highest concentration at which colonies reappeared; type: functional
[50] = Inhibition of beta-lactamase TEM-3
[51] = Inhibition of beta-lactamase SHV-2
[52] = Inhibition of beta-lactamase SHV-4
[53] = Inhibition of beta-lactamase VIM-1
[54] = Inhibition of Pseudomonas aeruginosa 18S/H beta-lactamase class C

C[C@@H](O)[C@H]1C(=O)N2C(C(=O)O)=C(S[C@@H]3CN[C@H](C(=O)N(C)C)C3)[C@H](C)[C@H]12 [MEROPENEM]
MIC50 (Providencia stuartii): 0.25 µg/mL (≈ 0.652 µM) | MIC90 (Providencia stuartii): > 32 µg/mL | MIC50 (Proteus mirabilis): 0.125 µg/mL (≈ 0.326 µM) | MIC90 (Proteus mirabilis): 0.5 µg/mL (≈ 1.3 µM) | MIC50 [1]: 8 µg/mL (≈ 20.9 µM) | MIC90 [1]: > 32 µg/mL | MIC (Escherichia coli [2]): ≤ 0.06 µg/mL | MIC (Escherichia coli [3]): 0.125 µg/mL (≈ 0.326 µM) | MIC (Klebsiella oxytoca): 0.125 µg/mL (≈ 0.326 µM) | MIC (Serratia marcescens): 32 µg/mL (≈ 83.4 µM) | MIC (Klebsiella pneumoniae [4]): > 32 µg/mL | MIC (Pseudomonas aeruginosa [5]): > 32 µg/mL | Time (Pseudomonas aeruginosa [6]): 1.5 h | Time (Pseudomonas aeruginosa [7]): 4.1 h | Time (Pseudomonas aeruginosa [8]): 3.8 h | MBC (Pseudomonas aeruginosa [9]): 32 µg/mL (≈ 83.4 µM) | MBC (Pseudomonas aeruginosa [10]): 2 µg/mL | MBC [11]: 16 µg/mL (≈ 41.7 µM) | MIC (Acinetobacter baumannii [12]): > 32 µg/mL | MIC (Pseudomonas aeruginosa [13]): 1 µg/mL (≈ 2.61 µM) | MIC (Pseudomonas aeruginosa [14]): 0.5 µg/mL (≈ 1.3 µM) | MIC (Pseudomonas aeruginosa [15]): 0.125 µg/mL (≈ 0.326 µM) | MIC (Pseudomonas aeruginosa [16]): 0.5 µg/mL (≈ 1.3 µM) | MIC (Pseudomonas aeruginosa [17]): 2 µg/mL (≈ 5.22 µM) | MBC (Enterobacter cloacae [18]): 0.25 µg/mL (≈ 0.652 µM) | MIC (Acinetobacter baumannii [19]): 1 µg/mL (≈ 2.61 µM) | MIC (Acinetobacter junii [20]): 0.25 µg/mL (≈ 0.652 µM) | MIC (Enterobacter cloacae [21]): 1 µg/mL (≈ 2.61 µM) | MIC (Enterobacter cloacae [22]): 4 µg/mL (≈ 10.4 µM) | Activity (Acinetobacter baumannii [23]): inactive | Activity (Acinetobacter junii [24]): Active | Activity (Klebsiella pneumoniae [25]): inactive | Activity (Pseudomonas aeruginosa [26]): inactive | Activity (Pseudomonas aeruginosa [27]): 1 frequency | Activity (Enterobacter cloacae [28]): 7 passages | Activity (Pseudomonas aeruginosa [29]): 2 passages | MIC (Pseudomonas aeruginosa [30]): 1 µg/mL (≈ 2.61 µM)

CC1(C)[C@H](NC(=O)/C(=N\OCc2cc(=O)c(O)cn2O)c2csc(N)n2)C(=O)N1OS(=O)(=O)O (stereo in doubt)
MIC (Providencia stuartii): ≤ 0.06 µg/mL | MIC50 (Providencia stuartii): ≤ 0.06 µg/mL | MIC90 (Providencia stuartii): ≤ 0.06 µg/mL | MIC (Proteus mirabilis): ≤ 0.06 µg/mL | MIC50 (Proteus mirabilis): ≤ 0.06 µg/mL | MIC90 (Proteus mirabilis): 0.25 µg/mL (≈ 0.482 µM) | MIC50 [1]: 0.5 µg/mL (≈ 0.964 µM) | MIC90 [1]: 2 µg/mL (≈ 3.86 µM) | MIC50 (Enterobacteriaceae): 2 µg/mL (≈ 3.86 µM) | MIC (Escherichia coli [2]): 32 µg/mL (≈ 61.7 µM) | MIC (Escherichia coli [3]): 0.125 µg/mL (≈ 0.241 µM) | MIC (Klebsiella oxytoca): 0.5 µg/mL (≈ 0.964 µM) | MIC (Serratia marcescens): ≤ 0.06 µg/mL | MIC (Klebsiella pneumoniae [4]): ≤ 0.06 µg/mL | MIC (Pseudomonas aeruginosa [5]): 2 µg/mL (≈ 3.86 µM) | pIC50 [31]: 5.41 | pIC50 [32]: 5.72 | pIC50 [33]: 4.52 | pIC50 [34]: 7.32 | MIC (Acinetobacter baumannii [12]): 8 µg/mL (≈ 15.4 µM) | MIC (Pseudomonas aeruginosa [13]): 0.25 µg/mL (≈ 0.482 µM) | MIC (Pseudomonas aeruginosa [14]): 0.125 µg/mL (≈ 0.241 µM) | MIC (Pseudomonas aeruginosa [15]): ≤ 0.06 µg/mL | MIC (Pseudomonas aeruginosa [16]): ≤ 0.06 µg/mL | MIC (Pseudomonas aeruginosa [17]): 1 µg/mL (≈ 1.93 µM) | MBC (Acinetobacter baumannii [35]): 0.5 µg/mL (≈ 0.964 µM) | MBC (Enterobacter cloacae [18]): 4 µg/mL (≈ 7.71 µM) | MBC (Pseudomonas aeruginosa [36]): 4 µg/mL (≈ 7.71 µM) | MBC (Pseudomonas aeruginosa [37]): 8 µg/mL (≈ 15.4 µM) | MBC (Pseudomonas aeruginosa [38]): 4 µg/mL (≈ 7.71 µM) | MBC [39]: 0.125 µg/mL | FC (Enterobacter cloacae [40]): 3 | Activity (Pseudomonas aeruginosa [41]): Active | Activity (Pseudomonas aeruginosa [42]): Active | Activity [43]: Active | Activity (Escherichia coli [44]): Active | Activity (Acinetobacter baumannii [45]): 4 mg/L | Activity (Acinetobacter junii [46]): 1 mg/L | Activity (Enterobacter cloacae [47]): 16 mg/L | Activity (Escherichia coli [48]): 1 mg/L | Activity (Pseudomonas aeruginosa [49]): 32 mg/L | Activity (Acinetobacter baumannii [23]): Active | Activity (Acinetobacter junii [24]): Active | Activity (Klebsiella pneumoniae [25]): Active | Activity (Pseudomonas aeruginosa [27]): 7 frequency | Activity (Enterobacter cloacae [28]): 9 passages | Activity (Pseudomonas aeruginosa [29]): 5 passages | pIC50 [50]: 5.34 | pIC50 [51]: 5.47 | pIC50 [52]: 5.37 | pIC50 [53]: < 3.30 | pIC50 [54]: 4.55 | MIC (Pseudomonas aeruginosa [30]): 2 µg/mL (≈ 3.86 µM)
